{"source": "ChEMBL document CHEMBL6074686", "about": "(Eur J Med Chem, 2025)", "key": {"SK-OV-3 [1]": {"tested_on": "SK-OV-3", "assay": "Induction of apoptosis in human SK-OV-3 cells assessed as upregulation of Bcl-2 expression at 100 nM incubated for 24 hrs by Western blotting analysis", "type": "functional, cell-based"}, "SK-OV-3 [2]": {"tested_on": "SK-OV-3", "assay": "Inhibition of cell migration in human SK-OV-3 cells assessed as area of migrated cells at 10 nM incubated for 24 hrs by crystal violet staining based inverted microscopic analysis (reference value: 30.1 +/- 1.3 mm^3)", "type": "functional"}, "MCF7 [3]": {"tested_on": "MCF7", "assay": "Inhibition of cell migration in human MCF7 cells assessed as wound closure at 20 nM incubated for 24 hrs by wound healing assay (reference value: 44.5 +/- 8.8%)", "type": "functional", "parameters": "scale not given: the % may be the effect or the level left"}, "SK-OV-3 [4]": {"tested_on": "SK-OV-3", "assay": "Inhibition of colony formation in human SK-OV-3 cells incubated for 12 days by crystal violet staining based assay", "type": "functional, cell-based", "conditions": "dose 1.25-20 nM, time 12.0 day"}, "MCF7 [5]": {"tested_on": "MCF7", "assay": "Inhibition of cell migration in human MCF7 cells assessed as increase in cell density at 20 nM incubated for 24 hrs by wound healing assay", "type": "functional, cell-based"}, "SK-OV-3 [6]": {"tested_on": "SK-OV-3", "assay": "Induction of cell cycle arrest in human SK-OV-3 cells assessed as decrease in Cyclin-B1 expression at 100 nM incubated for 24 hrs by Western blotting analysis", "type": "functional, cell-based"}, "SK-OV-3 [7]": {"tested_on": "SK-OV-3", "assay": "Induction of apoptosis in human SK-OV-3 cells assessed as Bax expression at 25 to 50 nM incubated for 24 hrs by Western blotting analysis", "type": "functional, cell-based", "conditions": "dose 25-50 nM"}, "SK-OV-3 [8]": {"tested_on": "SK-OV-3", "assay": "Inhibition of cell migration in human SK-OV-3 cells assessed as reduction in wound closure at 12.5 nM incubated for 24 hrs by wound healing assay (reference value: 21.8 +/- 7.6%)", "type": "functional", "conditions": "SK-OV-3, 24 h, values are per cent of control"}, "SK-OV-3 [9]": {"tested_on": "SK-OV-3", "assay": "Inhibition of cell migration in human SK-OV-3 cells assessed as ratio of migrated cells at 1.25 nM incubated for 24 hrs by Transwell assay (reference value: 100 %)", "type": "functional", "parameters": "scale not given: the % may be the effect or the level left"}, "MCF7 [10]": {"tested_on": "MCF7", "assay": "Inhibition of cell migration in human MCF7 cells assessed as wound closure at 5 nM incubated for 24 hrs by wound healing assay (reference value: 44.5 +/- 8.8%)", "type": "functional", "parameters": "scale not given: the % may be the effect or the level left"}, "SK-OV-3 [11]": {"tested_on": "SK-OV-3", "assay": "Inhibition of cell migration in human SK-OV-3 cells assessed as ratio of migrated cells at 10 nM incubated for 24 hrs by Transwell assay (reference value: 100 %)", "type": "functional", "parameters": "scale not given: the % may be the effect or the level left"}, "SK-OV-3 [12]": {"tested_on": "SK-OV-3", "assay": "Antitumor activity against human SK-OV-3 cells xenografted xenografted in female BALB/c nude mouse assessed as downregulation of CD-31 expression level in tumor at 10 mg/kg, […] via tail vein once every 2 to 3 days by immunohistochemistry analysis", "type": "functional, organism-based", "conditions": "time 2-3 day"}, "SK-OV-3 [13]": {"tested_on": "SK-OV-3", "assay": "Induction of apoptosis in human SK-OV-3 cells assessed as upregulation of cleaved-PARP expression at 25 to 50 nM incubated for 24 hrs by Western blotting analysis", "type": "functional, cell-based", "conditions": "dose 25-50 nM"}, "SK-OV-3 [14]": {"tested_on": "SK-OV-3", "assay": "Induction of cell cycle arrest in human SK-OV-3 cells assessed as downregulation of Cdc-25c expression incubated for 24 hrs by Western blotting analysis", "type": "functional, cell-based", "conditions": "dose 25-100 nM"}, "SK-OV-3 [15]": {"tested_on": "SK-OV-3", "assay": "Induction of cell cycle arrest in human SK-OV-3 cells assessed as increase in G2/M phase cells at 2.5 nM incubated for 24 hrs PI staining based flow cytometric analysis (reference value: 24.6 +/- 2.0%)", "type": "functional"}, "SK-OV-3 [16]": {"tested_on": "SK-OV-3", "assay": "Inhibition of cell migration in human SK-OV-3 cells assessed as ratio of migrated cells at 2.5 nM incubated for 24 hrs by Transwell assay (reference value: 100 %)", "type": "functional", "parameters": "scale not given: the % may be the effect or the level left"}, "MDA-MB-231": {"tested_on": "MDA-MB-231", "assay": "Antitumor activity against human MDA-MB-231 cells assessed as reduction in cell viability incubated for 72 hrs by CCK8 assay", "conditions": "MDA-MB-231, 72 h"}, "MCF7 [17]": {"tested_on": "MCF7", "assay": "Inhibition of cell migration in human MCF7 cells assessed as wound closure ratio at 2.5 nM incubated for 24 hrs by wound healing assay (reference value: 100%)", "type": "functional", "parameters": "scale not given: the % may be the effect or the level left"}, "SK-OV-3 [18]": {"tested_on": "SK-OV-3", "assay": "Antitumor activity against human SK-OV-3 cells xenografted in female BALB/c nude mouse assessed as tumor growth inhibition at 5 mg/kg, […] via tail vein once every 2 to 3 days", "type": "functional", "conditions": "time 2-3 day, read-out: TGI"}, "SK-OV-3 [19]": {"tested_on": "SK-OV-3", "assay": "Induction of apoptosis in human SK-OV-3 cells assessed as downregulation of cleaved-PARP expression at 100 nM incubated for 24 hrs by Western blotting analysis", "type": "functional, cell-based"}, "SK-OV-3 [20]": {"tested_on": "SK-OV-3", "assay": "Induction of cell cycle arrest in human SK-OV-3 cells assessed as upregulation of Cdc-2 expression at 25 to 50 nM incubated for 24 hrs by Western blotting analysis", "type": "functional, cell-based", "conditions": "dose 25-50 nM"}, "[21]": {"assay": "Toxicity in female BALB/c nude mouse xenografted with human SK-OV-3 cells assessed as drug tolerance by measuring reduction in water intake at 30 mg/kg, administered via tail vein for 5 days and measured daily", "type": "organism-based", "conditions": "in vivo, iv, 120 h, time 5 day"}, "MCF7 [22]": {"tested_on": "MCF7", "assay": "Induction of apoptosis in human MCF7 cells assessed as downregulation of Bax expression at 25 to 50 nM incubated for 24 hrs by Western blotting analysis", "type": "functional, cell-based", "conditions": "dose 25-50 nM"}, "SK-OV-3 [23]": {"tested_on": "SK-OV-3", "assay": "Induction of apoptosis in human SK-OV-3 cells assessed as downregulation of Bcl-2 expression incubated for 24 hrs by Western blotting analysis", "type": "functional, cell-based"}, "MCF7 [24]": {"tested_on": "MCF7", "assay": "Inhibition of cell migration in human MCF7 cells assessed as wound closure ratio at 20 nM incubated for 24 hrs by wound healing assay (reference value: 100%)", "type": "functional", "parameters": "scale not given: the % may be the effect or the level left"}, "MCF7 [25]": {"tested_on": "MCF7", "assay": "Inhibition of cell migration in human MCF7 cells assessed as ratio of migrated cells at 3.125 nM incubated for 24 hrs by crystal violet staining based inverted microscopic analysis (reference value: 100%)", "type": "functional", "parameters": "scale not given: the % may be the effect or the level left"}, "A549": {"tested_on": "A549", "assay": "Induction of cell cycle arrest in human A549 cells assessed as downregulation of Cdc-25c expression incubated for 24 hrs by Western blotting analysis", "type": "functional, cell-based", "conditions": "dose 25-100 nM"}, "MCF7 [26]": {"tested_on": "MCF7", "assay": "Inhibition of cell migration in human MCF7 cells assessed as area of migrated cells at 12.5 nM incubated for 24 hrs by crystal violet staining based inverted microscopic analysis (reference value: 18.5 +/- 0.3 mm^3)", "type": "functional"}, "SK-OV-3 [27]": {"tested_on": "SK-OV-3", "assay": "Antitumor activity against human SK-OV-3 cells xenografted xenografted in female BALB/c nude mouse assessed as downregulation of Bcl-2 expression level in tumor at 5 to 10 mg/kg, […] via tail vein once every 2 to 3 days by immunohistochemistry analysis", "type": "functional, organism-based", "conditions": "dose 5-10 mg/kg, time 2-3 day"}, "MCF7 [28]": {"tested_on": "MCF7", "assay": "Inhibition of colony formation in human MCF7 cells at 3.125 to 50 nM by crystal violet staining based assay", "type": "functional, cell-based", "conditions": "dose 3.125-50 nM, time 0-72 hrs"}, "[29]": {"assay": "Toxicity in female BALB/c nude mouse xenografted with human SK-OV-3 cells assessed as pathological changes in spleen at 5 to 10 mg/kg, […] via tail vein once every 2 to 3 days by H and E staining based analysis", "type": "organism-based", "conditions": "in vivo, dose lower 5 mg/kg, time lower 2 day, dose upper 10 mg/kg, time upper 3 day"}, "Tubulin (Homo sapiens)": {"biological_target": "Tubulin (Homo sapiens) (UniProt P68371+Q9H4B7+P0DPH7+P68366+Q13509+Q71U36+P04350+Q3ZCM7+P07437+P68363+Q9BQE3+Q6PEY2+Q13885+Q9BVA1+Q9BUF5)", "assay": "Inhibition of tubulin polymerization in human SK-OV-3 cells assessed as destruction of microtubule network at 20 nM incubated for 18 hrs by Alexa Fluor 488 staining based confocal immunofluorescent microscopic analysis", "type": "cell-based"}}, "note": "The source made the active and inactive calls. No cut-off for these calls is given here."}
{"smiles": "CNc1nc(N2CCCc3cc(OC)ccc32)c2cc(F)ccc2n1", "values": [{"measurement": "Activity", "setting": "SK-OV-3 [1]", "result": "inactive"}, {"measurement": "Activity", "setting": "SK-OV-3 [2]", "result": 6.8, "unit": "mm3"}, {"measurement": "Activity", "setting": "MCF7 [3]", "result": 32.2, "unit": "%"}, {"measurement": "inhibition", "setting": "SK-OV-3 [4]", "result": "Dose-dependent-effect"}, {"measurement": "inhibition", "setting": "MCF7 [5]", "result": "Active; Increase In Cell Density Was Notably Slowed Down"}, {"measurement": "Activity", "setting": "SK-OV-3 [6]", "result": "Active"}, {"measurement": "Activity", "setting": "SK-OV-3 [7]", "result": "inactive"}, {"measurement": "response, % of control at 0.0125 µM", "setting": "SK-OV-3 [8]", "result": 14.3, "unit": "%"}, {"measurement": "Activity", "setting": "SK-OV-3 [9]", "result": 72.3, "unit": "%"}, {"measurement": "Activity", "setting": "MCF7 [10]", "result": 43.3, "unit": "%"}, {"measurement": "Activity", "setting": "SK-OV-3 [11]", "result": 22.7, "unit": "%"}, {"measurement": "Activity", "setting": "SK-OV-3 [12]", "result": "Active"}, {"measurement": "Activity", "setting": "SK-OV-3 [13]", "result": "Active"}, {"measurement": "Activity", "setting": "SK-OV-3 [14]", "result": "Dose-dependent-effect"}, {"measurement": "Activity", "setting": "SK-OV-3 [15]", "result": 25.3, "unit": "%"}, {"measurement": "Activity", "setting": "SK-OV-3 [16]", "result": 62.9, "unit": "%"}, {"measurement": "IC50", "setting": "MDA-MB-231", "result": 1, "unit": "nM"}, {"measurement": "Activity", "setting": "MCF7 [17]", "result": 98.8, "unit": "%"}, {"measurement": "inhibition in vivo at 5 mg/kg", "setting": "SK-OV-3 [18]", "result": 34.1, "unit": "%"}, {"measurement": "Activity", "setting": "SK-OV-3 [19]", "result": "inactive"}, {"measurement": "Activity", "setting": "SK-OV-3 [20]", "result": "Active"}, {"measurement": "Activity", "setting": "[21]", "result": "Toxic"}, {"measurement": "Activity", "setting": "MCF7 [22]", "result": "inactive"}, {"measurement": "Activity", "setting": "SK-OV-3 [23]", "result": "Active"}, {"measurement": "Activity", "setting": "MCF7 [24]", "result": 72.4, "unit": "%"}, {"measurement": "Activity", "setting": "MCF7 [25]", "result": 94.5, "unit": "%"}, {"measurement": "Activity", "setting": "A549", "result": "Dose-dependent-effect"}, {"measurement": "Activity", "setting": "MCF7 [26]", "result": 11.2, "unit": "mm3"}, {"measurement": "Activity", "setting": "SK-OV-3 [27]", "result": "Active"}, {"measurement": "inhibition", "setting": "MCF7 [28]", "result": "Time-dependent-effect"}, {"measurement": "Activity", "setting": "[29]", "result": "Non-toxic"}, {"measurement": "inhibition", "setting": "Tubulin (Homo sapiens)", "result": "Active"}]}
